Measured values taken from ChEMBL document CHEMBL1201862, “PubChem BioAssay data set” (2004).
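Values below derive from 48-hour exposures of cells grown in 96-well plates, with endpoints linearly interpolated between the two concentrations bracketing the appropriate inhibition level. Abbreviation: GI50, concentration required for 50% inhibition of growth.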 The source made the active and inactive calls. Cut-off read from the data, not from the text of the source: active = GI50 up to about 1.1 µM and inactive = higher.

How the values were obtained:
Assay in all cases: NCI-60 cell line screen, 48 h
NCI-H522 = tested on: NCI-H522
OVCAR-5 = tested on: OVCAR-5
RPMI-8226 = tested on: RPMI-8226
PC-3 = tested on: PC-3
CAKI-1 = tested on: CAKI-1
OVCAR-4 = tested on: OVCAR-4
IGROV-1 = tested on: IGROV-1
NCI/ADR-RES = tested on: NCI/ADR-RES
SK-MEL-28 = tested on: SK-MEL-28
LOX IMVI = tested on: LOX IMVI
MDA-N = tested on: MDA-N
EKVX = tested on: EKVX
K562 = tested on: K562
MDA-MB-231 = tested on: MDA-MB-231
SF-539 = tested on: SF-539
MCF7 = tested on: MCF7
SK-OV-3 = tested on: SK-OV-3
UACC-257 = tested on: UACC-257
CCRF-CEM = tested on: CCRF-CEM
DMS-114 = tested on: DMS-114

Row | Compound | GI50 (NCI-H522) | GI50 (OVCAR-5) | GI50 (RPMI-8226) | GI50 (PC-3) | GI50 (CAKI-1) | GI50 (OVCAR-4) | GI50 (IGROV-1) | GI50 (NCI/ADR-RES) | GI50 (SK-MEL-28) | GI50 (LOX IMVI) | GI50 (MDA-N) | GI50 (EKVX) | GI50 (K562) | GI50 (MDA-MB-231) | GI50 (SF-539) | GI50 (MCF7) | GI50 (SK-OV-3) | GI50 (UACC-257) | GI50 (CCRF-CEM) | GI50 (DMS-114)
1 | O=C1N/C(=N/N=C/C(O)C(O)C(O)C(O)CO)N/C1=C\c1cccs1 (stereo not drawn) | 88.5 µM (inactive) | > 100 µM (inactive) | > 100 µM (inactive) | > 100 µM (inactive) | > 100 µM (inactive) | > 100 µM (inactive) | > 100 µM (inactive) | > 100 µM (inactive) | > 100 µM (inactive) | > 100 µM (inactive) | > 100 µM (inactive) | 87.1 µM (inactive) | > 100 µM (inactive) | > 100 µM (inactive) | > 100 µM (inactive) | > 100 µM (inactive) | > 100 µM (inactive) | > 100 µM (inactive) | > 100 µM (inactive) | 
2 | CC1(O)CC2C(CC1SC1CC3C(CC1(C)O)C3(C)C)C2(C)C (stereo not drawn) |  | 78.9 µM (inactive) | 41.9 µM (inactive) |  |  | 21.7 µM (inactive) | 45 µM (inactive) |  | > 100 µM (inactive) |  |  | 32.5 µM (inactive) | 30.5 µM (inactive) |  | > 100 µM (inactive) |  | 54.7 µM (inactive) | 49 µM (inactive) | 27 µM (inactive) | 48.5 µM (inactive)
3 | COc1cc2c(cc1OC)C1c3ccccc3C(C#N)(C2)N(C(=O)c2ccccc2)C1O (stereo not drawn) | 21.3 µM (inactive) | > 100 µM (inactive) | 45 µM (inactive) |  |  |  | 47.5 µM (inactive) |  | > 100 µM (inactive) | > 100 µM (inactive) |  | 75 µM (inactive) | 36.5 µM (inactive) |  | > 100 µM (inactive) |  | 77.3 µM (inactive) | 60.7 µM (inactive) | 52.1 µM (inactive) | 41.2 µM (inactive)
4 | CC(C)N(C(=O)C12C3C4C1C1C2C3C41I)C(C)C (stereo not drawn) | > 100 µM (inactive) | 84.3 µM (inactive) |  |  | > 100 µM (inactive) | > 100 µM (inactive) | > 100 µM (inactive) |  | > 100 µM (inactive) |  |  | > 100 µM (inactive) | > 100 µM (inactive) |  | > 10 µM (inactive) |  | > 100 µM (inactive) |  | > 100 µM (inactive) | > 100 µM (inactive)
5 | C/C(=N\NC(=O)N/N=C(\C)c1ccccn1)c1ccccn1 | 67.1 µM (inactive) | > 52.6 µM (inactive) | 0.0792 µM (active) | 37.2 µM (inactive) | 38.8 µM (inactive) | 42 µM (inactive) | 6.59 µM (inactive) | 8.83 µM (inactive) | 1.92 µM (inactive) | 0.466 µM (active) | 0.114 µM (active) | 19.3 µM (inactive) | 0.118 µM (active) | 0.333 µM (active) | 0.188 µM (active) | 7.16 µM (inactive) | > 100 µM (inactive) | > 100 µM (inactive) | 9.18 µM (inactive) | 
6 | COC(=O)C1=C(O)c2cc3c(cc2[C@H](c2cc(OC)c(OC)c(OC)c2)C1)OCO3 |  | > 100 µM (inactive) | 23 µM (inactive) |  | 34.8 µM (inactive) | 32.5 µM (inactive) | 24.4 µM (inactive) |  | 39.2 µM (inactive) | 30.5 µM (inactive) |  |  | 22.5 µM (inactive) |  | > 100 µM (inactive) |  | > 100 µM (inactive) | 34 µM (inactive) | 38.1 µM (inactive) | 41.2 µM (inactive)
7 | CN(C)CCCOC(=O)C(c1ccccc1)C1(O)CCSCC1 (stereo not drawn) | > 100 µM (inactive) | > 100 µM (inactive) | > 100 µM (inactive) | > 100 µM (inactive) | 32.7 µM (inactive) | > 100 µM (inactive) | > 100 µM (inactive) | 10.2 µM (inactive) | > 100 µM (inactive) | > 100 µM (inactive) | > 100 µM (inactive) | > 100 µM (inactive) | > 100 µM (inactive) | > 100 µM (inactive) | > 100 µM (inactive) | > 100 µM (inactive) | > 100 µM (inactive) | > 100 µM (inactive) | > 100 µM (inactive) | 
8 | CC1=CCCC2C(C=O)(C1)CC(C)C2(CO)CC/C(=C/CO)CO (stereo not drawn) | 38.4 µM (inactive) |  | 67.3 µM (inactive) |  | 57.3 µM (inactive) |  | > 100 µM (inactive) |  | > 100 µM (inactive) | > 100 µM (inactive) |  | > 100 µM (inactive) | 89.5 µM (inactive) |  |  |  | > 100 µM (inactive) | 98.9 µM (inactive) | 71.9 µM (inactive) | > 100 µM (inactive)
9 | CC(C(=O)O)c1ccc(-c2ccccc2)c(F)c1 (stereo not drawn) [FLURBIPROFEN] | > 100 µM (inactive) | > 100 µM (inactive) | > 100 µM (inactive) | > 100 µM (inactive) | > 100 µM (inactive) | > 100 µM (inactive) | > 100 µM (inactive) | > 100 µM (inactive) | > 100 µM (inactive) | > 100 µM (inactive) | > 100 µM (inactive) | > 100 µM (inactive) | > 100 µM (inactive) | > 100 µM (inactive) | > 100 µM (inactive) | > 100 µM (inactive) | > 100 µM (inactive) | > 100 µM (inactive) | > 100 µM (inactive) | 
